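Briefly, cells in 96-well plates were exposed to five compound concentrations for 48 h, and endpoints were estimated by linear interpolation. Abbreviation: GI50, concentration required for 50% inhibition of growth. TGI: concentration producing complete growth inhibition.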
Tests used:
Assay in all cases: inhibition of tumour cell growth, NCI panel, 48 h
[1] = system: A549 NSCLC
[2] = system: COLO 205 colon
[3] = system: HOP-62 NSCLC
[4] = system: KM12 colon
[5] = system: MCF7 breast
[6] = system: MOLT-4 leukemia
[7] = system: NCI/ADR-RES ovarian
[8] = system: PC-3 prostate
[9] = system: SR leukemia
[10] = system: UO-31 renal

`Cc1cccc2c3c(sc12)C(c1ccc(F)cc1)C(C#N)=C(N)O3` (stereo not given) gave a GI50 [1] of 0.135 µM, a TGI [1] of 14.1 µM and a GI50 [2] of 0.28 µM. The TGI [2] was 1.29 µM, the GI50 [3] was 0.127 µM and the TGI [3] was 12.9 µM. The GI50 [4] was 0.064 µM, the TGI [4] was 11.1 µM and the GI50 [5] was 0.0332 µM. For the same compound, the TGI [5] was 11.1 µM, the GI50 [6] was 0.137 µM and the TGI [6] was 26.6 µM. It also gave a GI50 [7] of 0.0446 µM, a TGI [7] of 4.14 µM and a GI50 [8] of 0.045 µM. It also gave a TGI [8] of 11.3 µM, a GI50 [9] of 0.0462 µM and a TGI [9] of 20.2 µM. For the same compound, the GI50 [10] was 0.286 µM and the TGI [10] was 15.5 µM.
Work on `CC(=O)/C=C/c1ccc(OCc2ccc(Cl)cc2)cc1` yielded a GI50 [1] of over 1000 µM, a TGI [1] of over 1000 µM and a GI50 [2] of 287 µM. It also gave a TGI [2] of over 1000 µM, a GI50 [3] of over 1000 µM and a TGI [3] of over 1000 µM. For the same compound, the GI50 [4] was 513 µM, the TGI [4] was over 1000 µM and the GI50 [5] was 644 µM. It also gave a TGI [5] of over 1000 µM, a GI50 [6] of 240 µM and a TGI [6] of over 1000 µM. It also gave a GI50 [7] of 395 µM, a TGI [7] of over 1000 µM and a GI50 [8] of 725 µM. For the same compound, the TGI [8] was over 1000 µM, the GI50 [9] was 564 µM and the TGI [9] was over 1000 µM. For the same compound, the GI50 [10] was 556 µM and the TGI [10] was over 1000 µM.
Work on `CC(=O)OC1=CC2(OC(C)=O)CC(C)(C)C1C1C(=O)C=CC(=O)C12` (stereo not given) yielded a TGI [1] of over 100 µM, a TGI [2] of over 65.7 µM and a TGI [3] of over 100 µM. The TGI [4] was over 100 µM, the TGI [5] was over 100 µM and the TGI [6] was over 100 µM. For the same compound, the TGI [7] was over 100 µM, the TGI [8] was over 100 µM and the TGI [9] was over 100 µM. It also gave a TGI [10] of over 100 µM.
For `COc1ccc(CCN2CCC(CN(C)Cc3cnn(-c4ccccc4)c3)CC2)cc1`, the GI50 [1] was 19.4 µM, the TGI [1] was 48.9 µM and the GI50 [2] was 3.42 µM. For the same compound, the TGI [2] was 11.7 µM, the GI50 [3] was 15.4 µM and the TGI [3] was 35.6 µM. It also gave a GI50 [4] of 15.4 µM, a TGI [4] of 30.8 µM and a GI50 [5] of 13.9 µM. For the same compound, the TGI [5] was 28.2 µM, the GI50 [6] was 12.8 µM and the TGI [6] was 66.7 µM. It also gave a GI50 [7] of 26.7 µM, a TGI [7] of over 100 µM and a GI50 [8] of 25.1 µM. It also gave a TGI [8] of over 100 µM, a GI50 [9] of 3.92 µM and a TGI [9] of 25.2 µM. The GI50 [10] was 3.37 µM and the TGI [10] was 16.2 µM.
Compound `CC(=O)Nc1n[n+]([O-])c2cc(C)ccc2[n+]1[O-]` has a TGI [1] of 12.3 µM, a TGI [2] of 8.48 µM and a TGI [3] of 11.4 µM. It also gave a TGI [4] of 11.3 µM, a TGI [5] of 3.66 µM and a TGI [6] of over 100 µM. For the same compound, the TGI [7] was over 44.7 µM, the TGI [8] was 14.8 µM and the TGI [9] was over 100 µM. It also gave a TGI [10] of 17.2 µM.
In the case of `Cc1cc(O)c(C2=NN(c3ccc(S(N)(=O)=O)cc3)C(/C=C/c3ccccc3)C2)cc1Cl` (stereo not given), the GI50 [1] is reported as 11 µM, the TGI [1] is reported as 30.8 µM and the GI50 [2] is reported as 10.4 µM. For the same compound, the TGI [2] was 22.1 µM, the GI50 [3] was 3.94 µM and the TGI [3] was 14.1 µM. It also gave a GI50 [4] of 11.7 µM, a TGI [4] of 34.8 µM and a GI50 [5] of 3.93 µM. It also gave a TGI [5] of 16.1 µM, a GI50 [6] of 17.7 µM and a TGI [6] of 73.7 µM. For the same compound, the GI50 [7] was 9.26 µM, the TGI [7] was 22.7 µM and the GI50 [8] was 3.15 µM. The TGI [8] was 11.5 µM, the GI50 [9] was 12.7 µM and the TGI [9] was 33.8 µM. For the same compound, the GI50 [10] was 15.2 µM and the TGI [10] was 34.9 µM.
`CC1(C)O[C@@H]2C[C@H]3[C@@H]4C[C@H](F)C5=CC(=O)C=C[C@]5(C)[C@@]4(F)[C@@H](O)C[C@]3(C)[C@]2(C(=O)CO)O1` was tested, and the TGI [1] was over 100 µM, the TGI [2] was over 100 µM and the TGI [3] was over 100 µM. The TGI [4] was over 100 µM, the TGI [5] was over 100 µM and the TGI [6] was over 100 µM. It also gave a TGI [7] of over 100 µM, a TGI [8] of over 100 µM and a TGI [9] of over 100 µM. For the same compound, the TGI [10] was over 100 µM.

Source: PubChem BioAssay (NCI)
